Experimental data as given in PubChem BioAssay (NCI).
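48-hour exposure; five concentrations; linearly interpolated endpoints. TGI: total growth inhibition.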

How the values were obtained:
Assay in all cases: inhibition of tumour cell growth, NCI panel, 48 h
HCT-116 colon = test system: HCT-116 colon
HCT-15 colon = test system: HCT-15 colon
CAKI-1 renal = test system: CAKI-1 renal
DLD-1 colon = test system: DLD-1 colon
IGROV1 ovarian = test system: IGROV1 ovarian
OVCAR-5 ovarian = test system: OVCAR-5 ovarian
DMS 273 small cell lung = test system: DMS 273 small cell lung
A549 NSCLC = test system: A549 NSCLC
ACHN renal = test system: ACHN renal
UACC-257 melanoma = test system: UACC-257 melanoma
UO-31 renal = test system: UO-31 renal
OVCAR-8 ovarian = test system: OVCAR-8 ovarian
HOP-18 NSCLC = test system: HOP-18 NSCLC
SK-MEL-2 melanoma = test system: SK-MEL-2 melanoma
HT29 colon = test system: HT29 colon
SF-295 CNS = test system: SF-295 CNS
RXF 393 renal = test system: RXF 393 renal
M19-MEL melanoma = test system: M19-MEL melanoma
MALME-3M melanoma = test system: MALME-3M melanoma
CCRF-CEM leukemia = test system: CCRF-CEM leukemia
HOP-92 NSCLC = test system: HOP-92 NSCLC
SW-620 colon = test system: SW-620 colon
MOLT-4 leukemia = test system: MOLT-4 leukemia
HCC-2998 colon = test system: HCC-2998 colon
RXF-631 renal = test system: RXF-631 renal
M14 melanoma = test system: M14 melanoma
SNB-75 CNS = test system: SNB-75 CNS
SF-539 CNS = test system: SF-539 CNS
NCI-H226 lung = test system: NCI-H226 lung
U251 CNS = test system: U251 CNS
SF-268 CNS = test system: SF-268 CNS
A498 renal = test system: A498 renal
TK-10 renal = test system: TK-10 renal
786-0 renal = test system: 786-0 renal
LXFL 529 NSCLC = test system: LXFL 529 NSCLC
KM20L2 colon = test system: KM20L2 colon
SK-MEL-5 melanoma = test system: SK-MEL-5 melanoma
LOX IMVI melanoma = test system: LOX IMVI melanoma
SNB-19 CNS = test system: SNB-19 CNS
HL-60(TB) leukemia = test system: HL-60(TB) leukemia
DMS 114 small cell lung = test system: DMS 114 small cell lung
HOP-62 NSCLC = test system: HOP-62 NSCLC
K-562 leukemia = test system: K-562 leukemia
SK-OV-3 ovarian = test system: SK-OV-3 ovarian
UACC-62 melanoma = test system: UACC-62 melanoma
NCI-H460 lung = test system: NCI-H460 lung
OVCAR-4 ovarian = test system: OVCAR-4 ovarian
NCI-H522 lung = test system: NCI-H522 lung
COLO 205 colon = test system: COLO 205 colon
RPMI-8226 leukemia = test system: RPMI-8226 leukemia
SR leukemia = test system: SR leukemia
SN12C renal = test system: SN12C renal
KM12 colon = test system: KM12 colon
SNB-78 CNS = test system: SNB-78 CNS
SK-MEL-28 melanoma = test system: SK-MEL-28 melanoma
XF 498 CNS = test system: XF 498 CNS
OVCAR-3 ovarian = test system: OVCAR-3 ovarian
EKVX NSCLC = test system: EKVX NSCLC
NCI-H23 lung = test system: NCI-H23 lung

Measured: TGI

O=C1OC(=O)c2c1nc1ccccc1c2-c1ccccc1
not listed: SK-MEL-28 melanoma | XF 498 CNS | OVCAR-3 ovarian | EKVX NSCLC | NCI-H23 lung
> 100 µM: all other assays above

CCOC1c2nc3ccccc3nc2-c2ccccc2N1C(C)=O (centres undefined)
not listed: OVCAR-5 ovarian | MALME-3M melanoma | NCI-H226 lung | SF-268 CNS | TK-10 renal | SK-MEL-5 melanoma | LOX IMVI melanoma | NCI-H522 lung
> 100 µM: all other assays above

O=C1C=CC2(CCC23C=CC(=O)O3)O1 (centres undefined)
not listed: CAKI-1 renal | DMS 273 small cell lung | HOP-92 NSCLC | SK-MEL-5 melanoma | SR leukemia
> 100 µM: all other assays above
